Source: patent US7879881B2, “Piperidinyl compounds that selectively bind integrins” (Janssen Pharmaceutica NV, priority 2002, dated 2011)
Like-named read-outs stand apart in the source and are kept apart here.

Assays:
human purified αVβ5 = target: T1, human purified αVβ5 (Homo sapiens, UniProt P06756+P18084); test: In Vitro Solid Phase Purified αcβ5 Binding Assay (vitronectin/αVβ5); details: vitronectin binding to immobilized purified human αVβ5, mean ± spread
T1 construct: purchased Chemicon International, Inc
T1 sequence (P06756 31-889 limits assumed): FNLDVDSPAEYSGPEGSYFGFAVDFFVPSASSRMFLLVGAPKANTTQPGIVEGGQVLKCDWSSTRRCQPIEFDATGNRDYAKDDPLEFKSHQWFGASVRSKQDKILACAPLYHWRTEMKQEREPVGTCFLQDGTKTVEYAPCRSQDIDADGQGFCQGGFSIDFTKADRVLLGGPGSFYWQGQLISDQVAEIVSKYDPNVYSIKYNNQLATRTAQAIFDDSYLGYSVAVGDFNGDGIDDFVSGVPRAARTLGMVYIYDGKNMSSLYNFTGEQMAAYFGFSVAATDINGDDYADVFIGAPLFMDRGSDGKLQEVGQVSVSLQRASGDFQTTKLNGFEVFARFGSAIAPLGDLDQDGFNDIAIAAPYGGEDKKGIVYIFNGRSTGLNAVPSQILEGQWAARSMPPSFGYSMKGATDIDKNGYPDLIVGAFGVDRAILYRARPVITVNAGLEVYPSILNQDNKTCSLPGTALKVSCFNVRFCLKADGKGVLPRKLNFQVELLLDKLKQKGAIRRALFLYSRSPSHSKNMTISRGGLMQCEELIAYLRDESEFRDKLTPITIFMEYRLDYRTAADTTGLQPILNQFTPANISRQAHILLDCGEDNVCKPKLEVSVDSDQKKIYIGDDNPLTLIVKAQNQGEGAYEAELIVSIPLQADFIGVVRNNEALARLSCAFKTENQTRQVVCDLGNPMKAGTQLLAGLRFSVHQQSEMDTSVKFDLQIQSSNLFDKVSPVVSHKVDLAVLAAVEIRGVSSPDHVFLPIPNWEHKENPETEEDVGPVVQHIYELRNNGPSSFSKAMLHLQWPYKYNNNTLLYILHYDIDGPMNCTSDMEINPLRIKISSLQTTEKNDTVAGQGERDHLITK
T1 sequence (P06756 891-1048 partner limits assumed): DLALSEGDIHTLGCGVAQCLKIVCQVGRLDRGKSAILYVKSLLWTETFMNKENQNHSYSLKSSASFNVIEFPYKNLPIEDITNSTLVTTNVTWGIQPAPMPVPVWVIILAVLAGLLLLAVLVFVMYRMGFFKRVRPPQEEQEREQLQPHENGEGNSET
T1 sequence (P18084 24-799): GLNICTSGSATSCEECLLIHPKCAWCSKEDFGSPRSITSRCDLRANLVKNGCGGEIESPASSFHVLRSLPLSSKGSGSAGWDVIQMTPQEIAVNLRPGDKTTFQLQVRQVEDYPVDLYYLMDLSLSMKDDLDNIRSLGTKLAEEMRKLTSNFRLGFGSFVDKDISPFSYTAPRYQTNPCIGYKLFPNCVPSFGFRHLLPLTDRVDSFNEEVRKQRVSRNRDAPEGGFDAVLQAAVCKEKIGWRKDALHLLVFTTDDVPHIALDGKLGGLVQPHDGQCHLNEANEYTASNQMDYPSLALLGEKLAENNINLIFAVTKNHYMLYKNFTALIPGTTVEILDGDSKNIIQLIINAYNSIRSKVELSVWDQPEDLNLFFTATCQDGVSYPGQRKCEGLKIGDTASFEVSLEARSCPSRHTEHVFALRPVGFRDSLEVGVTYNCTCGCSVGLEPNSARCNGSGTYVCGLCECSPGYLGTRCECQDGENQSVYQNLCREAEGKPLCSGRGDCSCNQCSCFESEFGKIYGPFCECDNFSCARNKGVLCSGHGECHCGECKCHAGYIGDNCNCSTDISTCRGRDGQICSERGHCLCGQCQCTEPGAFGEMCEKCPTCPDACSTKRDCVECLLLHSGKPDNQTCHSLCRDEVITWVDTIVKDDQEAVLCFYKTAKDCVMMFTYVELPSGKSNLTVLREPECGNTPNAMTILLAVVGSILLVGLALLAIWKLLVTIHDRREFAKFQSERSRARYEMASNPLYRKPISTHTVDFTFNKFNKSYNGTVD
Description: (§1) Human αvβ3 (Chemicon International Inc., Temecula, Calif.), at a concentration of 1 μg/ml dissolved in Tris buffer (20 mM Tris, 1 mM CaCl2, 1 mM MgCl2, 10 μM MnCl2, 150 mM NaCl), was immobilized on Immulon 96 well plates (Dynex Technologies, Chantilly, Va.) overnight at 4° C. Plates were washed and treated with blocking buffer (3% BSA in Tris buffer) for 2 h at 37° C. Plates were then rinsed 2 times with assay buffer comprised of Tris buffer. Synthesized compounds were added to wells in duplicate immediately prior to the addition of 2 nM vitronectin (Sigma, St. Louis, Mo.). Following a 3 hour incubation at 37° C., plates were washed 5 times in assay buffer. An anti-human vitronectin IgG rabbit polyclonal antibody (Calbiochem, San Diego, Calif.) was added (1:2000) and plates were incubated for 1 hour at room temperature. VectaStain ABC peroxidase kit reagents (Vector Laboratories, Burlingame, Calif.) employing a biotin labeled anti-rabbit IgG, were utilized for detection of bound antibody. Plates were read at 490 nm on a Molecular Devices (Sunnyvale, Calif.) microplate reader.
In Vitro Solid Phase Purified αcβ5 Binding Assay
All other aspects of the assay including buffers, reagents and incubation times remain unchanged.

GP IIb/IIIa = GP IIb/IIIa (Homo sapiens, UniProt P05106+P08514); test: In Vitro Solid Phase Purified GP IIb/IIIa Binding Assay (biotinylated fibrinogen); details: biotinylated fibrinogen binding to immobilized purified GP IIb/IIIa, mean ± spread
Chain of GP IIb/IIIa (P08514 32-887 limits assumed): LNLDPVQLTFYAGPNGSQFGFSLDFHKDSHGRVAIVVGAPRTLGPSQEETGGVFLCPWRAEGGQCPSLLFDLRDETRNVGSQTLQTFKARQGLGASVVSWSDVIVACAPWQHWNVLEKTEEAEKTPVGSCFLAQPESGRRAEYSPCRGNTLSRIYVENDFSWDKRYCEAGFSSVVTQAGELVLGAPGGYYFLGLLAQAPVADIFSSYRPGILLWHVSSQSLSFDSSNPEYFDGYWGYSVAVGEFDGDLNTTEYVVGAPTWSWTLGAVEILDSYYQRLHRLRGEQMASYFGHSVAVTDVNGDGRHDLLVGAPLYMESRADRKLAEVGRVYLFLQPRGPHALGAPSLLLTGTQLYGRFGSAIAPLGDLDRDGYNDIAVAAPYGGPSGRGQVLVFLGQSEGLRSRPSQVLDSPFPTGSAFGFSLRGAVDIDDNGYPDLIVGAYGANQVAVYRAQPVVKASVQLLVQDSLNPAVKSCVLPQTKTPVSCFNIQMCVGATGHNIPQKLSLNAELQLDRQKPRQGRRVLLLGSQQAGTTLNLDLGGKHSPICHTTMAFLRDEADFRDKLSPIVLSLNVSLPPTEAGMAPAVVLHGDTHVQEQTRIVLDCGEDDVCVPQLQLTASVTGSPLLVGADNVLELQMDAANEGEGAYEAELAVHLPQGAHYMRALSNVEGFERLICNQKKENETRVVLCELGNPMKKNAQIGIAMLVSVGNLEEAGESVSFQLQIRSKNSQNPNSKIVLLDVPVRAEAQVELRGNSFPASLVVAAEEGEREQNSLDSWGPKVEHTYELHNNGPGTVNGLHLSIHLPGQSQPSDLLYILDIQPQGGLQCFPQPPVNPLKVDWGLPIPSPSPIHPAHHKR
Chain of GP IIb/IIIa (P08514 891-1039 partner limits assumed): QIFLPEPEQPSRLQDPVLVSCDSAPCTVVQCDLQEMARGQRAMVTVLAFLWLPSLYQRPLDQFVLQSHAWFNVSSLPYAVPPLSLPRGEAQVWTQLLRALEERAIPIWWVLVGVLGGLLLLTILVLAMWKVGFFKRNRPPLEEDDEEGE
Chain of GP IIb/IIIa (P05106 27-788): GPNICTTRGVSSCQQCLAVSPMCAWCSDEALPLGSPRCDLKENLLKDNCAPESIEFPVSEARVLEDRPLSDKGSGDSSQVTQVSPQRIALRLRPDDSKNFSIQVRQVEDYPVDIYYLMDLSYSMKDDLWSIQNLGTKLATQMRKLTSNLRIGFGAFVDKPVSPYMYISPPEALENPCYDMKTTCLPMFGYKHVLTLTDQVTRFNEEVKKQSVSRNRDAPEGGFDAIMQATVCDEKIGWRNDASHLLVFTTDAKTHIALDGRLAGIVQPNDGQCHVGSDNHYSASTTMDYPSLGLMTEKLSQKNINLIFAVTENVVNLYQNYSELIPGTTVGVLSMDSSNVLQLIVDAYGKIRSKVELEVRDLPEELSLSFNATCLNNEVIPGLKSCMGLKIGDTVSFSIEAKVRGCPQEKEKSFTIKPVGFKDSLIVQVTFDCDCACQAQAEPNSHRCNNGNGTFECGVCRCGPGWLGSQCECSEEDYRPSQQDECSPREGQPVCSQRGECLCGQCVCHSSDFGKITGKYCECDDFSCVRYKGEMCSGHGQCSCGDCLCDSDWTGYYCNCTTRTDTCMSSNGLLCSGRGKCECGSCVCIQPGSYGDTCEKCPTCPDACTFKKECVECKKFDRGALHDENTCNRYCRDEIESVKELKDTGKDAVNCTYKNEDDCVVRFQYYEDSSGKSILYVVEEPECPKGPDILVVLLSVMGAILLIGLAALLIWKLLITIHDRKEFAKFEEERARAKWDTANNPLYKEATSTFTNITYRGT
Description: In Vitro Solid Phase Purified GP IIb/IIIa Binding Assay
The plate was covered and incubated overnight at 4° C. The GP IIb/IIIa solution was discarded and 150 μL of 5% BSA was added and incubated at RT for 1-3 h. The plate was washed extensively with modified Tyrodes buffer. Biotinylated fibrinogen (25 μL/well) at 2× final concentration was added to the wells that contain the test compounds (25 μL/well). The plate was covered and incubated at RT for 2-4 h. Twenty minutes prior to incubation completion, one drop of Reagent A (VectaStain ABC Horseradish Peroxidase kit, Vector Laboratories, Inc.) and one drop Reagent B were added with mixing to 5 mL modified Tyrodes buffer mix and let stand. The ligand solution was discarded and the plate washed (5×200 μL/well) with modified Tyrodes buffer. […] The Vecta Stain solution was discarded and the wells washed (5×200 μL/well) with modified Tyrodes buffer. Developing buffer (10 mL of 50 mM citrate/phosphate buffer @ pH 5.3, 6 mg o-phenylenediamine, 6 μL 30% H2O2; 50 μL/well) was added and incubated at RT for 3-5 min and then 2 N H2SO4 (50 μL/well) was added.

Human αvβ3 = target: T2, Human αvβ3 (Homo sapiens, UniProt P05106+P06756); test: In Vitro Solid Phase Purified αvβ3 Binding Assay (vitronectin/αvβ3); details: vitronectin binding to immobilized purified human αvβ3, mean ± spread
T2 construct: purchased Chemicon International Inc., Temecula, Calif
T2 sequence (P06756 31-889 limits assumed): as the sequence (P06756 31-889 limits assumed) above
T2 sequence (P06756 891-1048 partner limits assumed): as the sequence (P06756 891-1048 partner limits assumed) above
T2 sequence (P05106 27-788): as the sequence (P05106 27-788) above
Description: In Vitro Solid Phase Purified αvβ3 Binding Assay
as §1

Row | IC50 (human purified αVβ5; read-out: αvβ5 IC50) [µM] | IC50 (GP IIb/IIIa; read-out: αIIbβ3 IC50) [µM] | IC50 (Human αvβ3; read-out: αvβ3IC50) [µM] | Structure (SMILES) | IC50 (GP IIb/IIIa; αIIbβ3 IC50 (uM)) [µM] | IC50 (human purified αVβ5; αvβ5 IC50 (uM)) [µM] | IC50 (Human αvβ3; αvβ3IC50 (uM)) [µM]
1 | 0.108 ± 0.034 | 5.04 | 0.0361 ± 0.0001 | O=C(O)CC(c1ccc2c(c1)OCO2)C1CCN(C(=O)CCc2ccc3c(n2)NCCC3)CC1 (stereo not drawn) [Cpd 14, β-(1,3-benzodioxol-5-yl)-1-[1-oxo-3-(5,6,7,8-tetrahydro-1,8-naphthyridin-2-yl)propyl]-4-piperidinepropanoic acid] | – | – | –
2 | 0.0334 ± 0.0063 | 4.03 ± 0.43 | 0.0019 ± 0.0002 | O=C(O)CC(c1ccc2c(c1)OCO2)C1CCN(C(=O)CCCc2ccc3c(n2)NCCC3)CC1 (stereo not drawn) [Cpd 15, β-(1,3-benzodioxol-5-yl)-1-[1-oxo-4-(5,6,7,8-tetrahydro-1,8-naphthyridin-2-yl)butyl]-4-piperidinepropanoic acid] | – | – | –
3 | 0.775 | 25.4 | 0.281 | O=C(O)CC(c1ccc2c(c1)OCO2)C1CCN(C(=O)Cc2ccc3c(n2)NCCC3)CC1 (stereo not drawn) [Cpd 16, β-(1,3-benzodioxol-5-yl)-1-[(5,6,7,8-tetrahydro-1,8-naphthyridin-2-yl)acetyl]-4-piperidinepropanoic acid] | – | – | –
4 | 0.0313 ± 0.006 | 6.6 ± 1.42 | 0.0008 ± 0.0001 | COc1ccc(C(CC(=O)O)C2CCN(C(=O)CCCc3ccc4c(n3)NCCC4)CC2)cn1 (stereo not drawn) [Cpd 17, 6-methoxy-β-[1-[1-oxo-4-(5,6,7,8-tetrahydro-1,8-naphthyridin-2-yl)butyl]-4-piperidinyl]-3-pyridinepropanoic acid] | – | – | –
5 | > 5 | > 50 | > 5 | CC1=NCC(C(CC(=O)O)CC2CCN(C(=O)CCc3ccc4c(n3)NCCC4)CC2)CN1 (stereo not drawn) [Cpd 18, 1,4,5,6-tetrahydro-2-methyl-β-[[1-[1-oxo-3-(5,6,7,8-tetrahydro-1,8-naphthyridin-2-yl)propyl]-4-piperidinyl]methyl]-5-pyrimidinepropanoic acid] | – | – | –
6 | 0.995 | 1.8 | 0.142 ± 0.027 | O=C(O)CC(CCC1CCN(C(=O)CCc2ccc3c(n2)NCCC3)CC1)c1ccc2c(c1)OCO2 (stereo not drawn) [Cpd 20, β-(1,3-benzodioxol-5-yl)-1-[1-oxo-3-(5,6,7,8-tetrahydro-1,8-naphthyridin-2-yl)propyl]-4-piperidinepentanoic acid] | – | – | –
7 | 0.78 | 1.8 ± 0.63 | 0.028 ± 0.0031 | COc1ccc(C(CCC2CCN(C(=O)CCc3ccc4c(n3)NCCC4)CC2)CC(=O)O)cn1 (stereo not drawn) [Cpd 21, 6-methoxy-β-[2-[1-[1-oxo-3-(5,6,7,8-tetrahydro-1,8-naphthyridin-2-yl)propyl]-4-piperidinyl]ethyl]-3-pyridinepropanoic acid] | – | – | –
8 | 0.195 | 0.43 ± 0.07 | 0.0046 ± 0.0008 | O=C(O)CC(CCC1CCN(C(=O)CCCNc2ccccn2)CC1)c1cnc2ccccc2c1 (stereo not drawn) [Cpd 22, β-[2-[1-[1-oxo-4-(2-pyridinylamino)butyl]-4-piperidinyl]ethyl]-3-quinolinepropanoic acid] | – | – | –
9 | 2.01 | 4.93 | 0.298 ± 0.146 | O=C(O)CC(CCC1CCN(C(=O)CCCNc2ccccn2)CC1)c1ccc2c(c1)OCO2 (stereo not drawn) [Cpd 23, β-(1,3-benzodioxol-5-yl)-1-[1-oxo-4-(2-pyridinylamino)butyl]-4-piperidinepentanoic acid] | – | – | –
10 | 0.387 | 19.3 | 0.307 | O=C(O)CC(c1ccc2c(c1)OCO2)C1CCN(C(=O)CCCNc2ccccn2)CC1 (stereo not drawn) [Cpd 24, β-(1,3-benzodioxol-5-yl)-1-[1-oxo-4-(2-pyridinylamino)butyl]-4-piperidinepropanoic acid] | – | – | –
11 | 0.773 ± 0.118 | 8.67 ± 1.72 | 0.0456 ± 0.0066 | COc1ccc(C(CCC2CCN(C(=O)CCCNc3ccccn3)CC2)CC(=O)O)cn1 (stereo not drawn) [Cpd 25, 6-methoxy-β-[2-[1-[1-oxo-4-(2-pyridinylamino)butyl]-4-piperidinyl]ethyl]-3-pyridinepropanoic acid] | – | – | –
12 | 0.5 | 5.92 | 0.0277 ± 0.0053 | O=C(O)CC(CC1CCN(C(=O)CCCc2ccc3c(n2)NCCC3)CC1)c1ccc2c(c1)OCO2 (stereo not drawn) [Cpd 26, β-(1,3-benzodioxol-5-yl)-1-[1-oxo-4-(5,6,7,8-tetrahydro-1,8-naphthyridin-2-yl)butyl]-4-piperidinebutanoic acid] | – | – | –
13 | 0.81 | 1.62 ± 0.56 | 0.048 | O=C(O)CC(CC1CCN(C(=O)c2cccc(NC3=NCC(O)CN3)c2)CC1)c1ccc2c(c1)OCO2 (stereo not drawn) [Cpd 27, β-(1,3-benzodioxol-5-yl)-1-[3-[(1,4,5,6-tetrahydro-5-hydroxy-2-pyrimidinyl)amino]benzoyl]-4-piperidinebutanoic acid] | – | – | –
14 | – | – | – | COc1ccc(C(CC(=O)O)CC2CCN(C(=O)CCc3ccc4c(n3)NCCC4)CC2)cn1 (stereo not drawn) [Cpd 28, 6-methoxy-β-[[1-[1-oxo-3-(5,6,7,8-tetrahydro-1,8-naphthyridin-2-yl)propyl]-4-piperidinyl]methyl]-3-pyridinepropanoic acid] | 6.1 ± 2.44 | 0.0027 ± 0.0008 | 0.0007 ± 0.0002
15 | 0.119 ± 0.015 | 1.74 ± 0.89 | 0.0022 ± 0.0008 | O=C(O)CC(CC1CCN(C(=O)CCCc2ccc3c(n2)NCCC3)CC1)c1cnc2ccccc2c1 (stereo not drawn) [Cpd 29, β-[[1-[1-oxo-4-(5,6,7,8-tetrahydro-1,8-naphthyridin-2-yl)butyl]-4-piperidinyl]methyl]-3-quinolinepropanoic acid] | – | – | –
16 | 0.0028 ± 0.0001 | 14.4 ± 5.98 | 0.001 ± 0.0002 | O=C(O)CC(CC1CCN(C(=O)CCc2ccc3c(n2)NCCC3)CC1)c1cccc(F)c1 (stereo not drawn) [Cpd 30, β-(3-fluorophenyl)-1-[1-oxo-3-(5,6,7,8-tetrahydro-1,8-naphthyridin-2-yl)propyl]-4-piperidinebutanoic acid] | – | – | –
17 | 0.3 | 21.6 ± 4.87 | 0.033 | O=C(O)CC(CC1CCN(C(=O)CCCc2ccc3c(n2)NCCC3)CC1)c1cccc(F)c1 (stereo not drawn) [Cpd 31, β-(3-fluorophenyl)-1-[1-oxo-4-(5,6,7,8-tetrahydro-1,8-naphthyridin-2-yl)butyl]-4-piperidinebutanoic acid] | – | – | –
18 | 0.0226 ± 0.0052 | > 50 | 0.0013 ± 0.0004 | O=C(O)CC(CC1CCN(C(=O)CCc2ccc3c(n2)NCCC3)CC1)c1ccc(F)cc1 (stereo not drawn) [Cpd 33, β-(4-fluorophenyl)-1-[1-oxo-3-(5,6,7,8-tetrahydro-1,8-naphthyridin-2-yl)propyl]-4-piperidinebutanoic acid] | – | – | –
19 | 1.04 ± 0.109 | > 50 | 0.148 ± 0.1 | O=C(O)CC(CC1CCN(C(=O)CCCc2ccc3c(n2)NCCC3)CC1)c1ccc(F)cc1 (stereo not drawn) [Cpd 34, β-(4-fluorophenyl)-1-[1-oxo-4-(5,6,7,8-tetrahydro-1,8-naphthyridin-2-yl)butyl]-4-piperidinebutanoic acid] | – | – | –
20 | 0.0007 ± 0.0002 | 0.965 ± 0.07 | 0.0007 ± 0.0004 | Cc1ncc(C(CC(=O)O)CC2CCN(C(=O)CCc3ccc4c(n3)NCCC4)CC2)cn1 (stereo not drawn) [Cpd 35, 2-methyl-β-[[1-[1-oxo-3-(5,6,7,8-tetrahydro-1,8-naphthyridin-2-yl)propyl]-4-piperidinyl]methyl]-5-pyrimidinepropanoic acid] | – | – | –
21 | 0.0007 ± 0.0002 | 3.11 ± 0.04 | 0.0008 ± 6e-05 | O=C(O)CC(CC1CCN(C(=O)CCc2ccc3c(n2)NCCC3)CC1)c1ccc2c(c1)OCC2 (stereo not drawn) [Cpd 36, β-(2,3-dihydro-6-benzofuranyl)-1-[1-oxo-3-(5,6,7,8-tetrahydro-1,8-naphthyridin-2-yl)propyl]-4-piperidinebutanoic acid] | – | – | –

Row | Structure (SMILES) | IC50 (human purified αVβ5; read-out: αvβ5 IC50) [µM] | IC50 (GP IIb/IIIa; read-out: αIIbβ3 IC50) [µM] | IC50 (Human αvβ3; read-out: αvβ3IC50) [µM] | IC50 (GP IIb/IIIa; αIIbβ3 IC50 (uM)) [µM] | IC50 (human purified αVβ5; αvβ5 IC50 (uM)) [µM] | IC50 (Human αvβ3; αvβ3IC50 (uM)) [µM]
22 | O=C(O)CC(CC1CCN(C(=O)CCc2ccc3c(n2)NCCC3)CC1)C1CNc2ccccc2C1 (stereo not drawn) [Cpd 19, 1,2,3,4-tetrahydro-β-[[1-[1-oxo-3-(5,6,7,8-tetrahydro-1,8-naphthyridin-2-yl)propyl]-4-piperidinyl]methyl]-3-quinolinepropanoic acid] | 0.0171 ± 0.0025 | – | 0.0025 ± 0.0004 | 13.8 ± 9.69 | – | –
23 | O=C(O)CC(CC1CCN(C(=O)CCc2ccc3c(n2)NCCC3)CC1)c1cnc2ccccc2c1 (stereo not drawn) [Cpd 32, β-[[1-[1-oxo-3-(5,6,7,8-tetrahydro-1,8-naphthyridin-2-yl)propyl]-4-piperidinyl]methyl]-3-quinolinepropanoic acid] | – | 1.05 ± 0.56 | – | – | 0.0022 ± 0.0007 | 0.0008 ± 0.0002
